In patent US8076351B2, “Camptothecin derivatives with antitumor activity” (Indena S.p.A., priority 2006, dated 2011):
Converted amounts (≈) assume the structure as drawn. Read-outs that look alike come from different tables or passages of the source.

Tests used:
[1] = tested on: NCI-H460 cell line (NSCL cancer); test: Cell growth inhibition assay (cytotoxicity, cell count); type: cell-based, human
Protocol: The compounds of the invention were tested in a cytotoxicity assay on a wide spectrum of tumour cells. By way of example, the cytotoxicity data on the NCI-H460 cell line (NSCL cancer) concerning two compounds of formula (I) are reported, using camptothecin and the drugs Topotecan and SN-38 as references:
H460 Cells from human large cell lung tumor were cultured in RPMI-1640 medium containing 10% foetal calf serum. Cell sensitivity was determined by cell growth inhibition assay after 1 or 72 hr drug exposure. The cells in logarithmic growth were collected and seeded in duplicate in 6-wells plates. […] IC50 is defined as the concentration inhibiting by 50% cell growth compared with untreated controls growth.

[2] = molecular target: T1, human recombinant enzyme (full length top1) (Homo sapiens, UniProt P11387); test: Topoisomerase-I-dependent DNA rupture assay, DNA damage persistence; type: biochemical; details: 30 min incubation with 10 μM drug
T1 construct: the human recombinant enzyme (full length top1)
T1 sequence (P11387 1-765): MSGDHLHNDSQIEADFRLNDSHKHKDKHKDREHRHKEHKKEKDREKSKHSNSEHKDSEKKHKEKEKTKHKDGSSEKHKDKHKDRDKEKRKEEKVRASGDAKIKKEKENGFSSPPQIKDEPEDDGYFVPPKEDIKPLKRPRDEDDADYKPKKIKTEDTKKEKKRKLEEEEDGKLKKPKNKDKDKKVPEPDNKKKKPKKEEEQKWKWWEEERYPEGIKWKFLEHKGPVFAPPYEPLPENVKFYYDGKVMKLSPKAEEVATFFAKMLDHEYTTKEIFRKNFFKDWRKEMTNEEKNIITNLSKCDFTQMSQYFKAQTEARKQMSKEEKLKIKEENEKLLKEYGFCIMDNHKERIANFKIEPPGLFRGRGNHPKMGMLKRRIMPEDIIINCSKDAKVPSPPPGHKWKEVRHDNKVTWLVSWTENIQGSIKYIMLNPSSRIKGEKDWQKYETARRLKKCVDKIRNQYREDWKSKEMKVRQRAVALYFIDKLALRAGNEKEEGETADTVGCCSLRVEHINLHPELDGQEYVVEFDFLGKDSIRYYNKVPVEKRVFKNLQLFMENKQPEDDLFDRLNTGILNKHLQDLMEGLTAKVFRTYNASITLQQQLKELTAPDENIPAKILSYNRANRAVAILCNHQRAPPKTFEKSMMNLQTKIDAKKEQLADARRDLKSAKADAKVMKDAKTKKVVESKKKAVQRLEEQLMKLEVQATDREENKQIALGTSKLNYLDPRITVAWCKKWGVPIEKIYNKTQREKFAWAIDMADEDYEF
Protocol: DNA ruptures were determined using a 751-bp BamHI-EcoRI DNA SV40 purified gel (Beretta G L, Binaschi M, Zagni A N D, Capuani L, Capranico G. Tethering a type IB topoisomerase to a DNA site by enzyme fusion to a heterologous site-selective DNA-binding protein domain. Cancer Res 1999; 59:3689-97). DNA fragments were only labeled at 3′. The DNA rupture reaction (20,000 cpm/sample) was carried out in […] of 10 mM Tris-HCL (pH 7.6), 150 mM KCl, 5 mM MgCl2, 15 μg/mL BSA, 0.1 mM thiothreitol, and the human recombinant enzyme (full length top1) for 30 min at 37° C. The reactions were blocked using 0.5% SDS and 0.3 mg/mL K proteinase for 45 min. at 42° C. DNA damage persistence was tested at different times adding 0.6M NaCl after 30 min. incubation with 10 μM of the drug. After precipitation, DNA was resuspended in denaturation buffer (80% formamide, 10 mM NaOH, 0.01 M EDTA and 1 mg/mL dye) before seeding in desaturating gel (7% polyacrylamide in TBE buffer).

[3] = NCI-H460, H460 human large cell lung tumor cells, 1 or 72 hr drug exposure, counted with Coulter counter 72 hours after exposure, read-out: NCI-H460 IC50 (μg/mL) Cell count
[4] = Time 0 min after adding 0.6M NaCl
[5] = Time 1 min after adding 0.6M NaCl
[6] = Time 5 min after adding 0.6M NaCl
[7] = Time 10 min after adding 0.6M NaCl

SMILES	IC50 [1, 3] [µg/mL]	Persitence of DNA damage (%) [2, 4] [%]	Persitence of DNA damage (%) [2, 5] [%]	Persitence of DNA damage (%) [2, 6] [%]	Persitence of DNA damage (%) [2, 7] [%]	IC50 ([1]; Homo sapiens, NCI-H460, read-out: NCI-H460 IC50 (μg/mL) Cell count) [µg/mL]
CC[C@@]1(O)C(=O)OCC2=C1C=C1c3nc4ccccc4cc3C3NN=C2N13 (stereo partly drawn) [IDN 6132]	17 ± 4.25 (≈ 47.2 µM)	100	45	32	20	
CC[C@@]1(O)C(=O)OCc2c1cc1n(c2=O)Cc2cc3c(CN(C)C)c(O)ccc3nc2-1 [Topotecan]	0.63 ± 0.44 (≈ 1.49 µM)	100	65	20	10	
CC[C@@]1(O)C(=O)OCc2c1cc1n(c2=O)Cc2cc3ccccc3nc2-1 [Camptothecin]	0.115 ± 0.0174 (≈ 0.33 µM)	100	58	23	20	
CC[C@@]1(O)C(=O)OCc2c1cc1c3nc4ccccc4cc3c3nnc2n13 [IDN 6137, triazole[5,4-c]16a-deoxocamptothecin]						3.8 ± 1.08 (≈ 10.6 µM)
CCc1c2c(nc3ccc(O)cc13)-c1cc3c(c(=O)n1C2)COC(=O)[C@]3(O)CC [SN38, 10-hydroxy-7-ethylcamptothecin]	0.0865 ± 0.0049 (≈ 0.22 µM)	100	60	33	28	
